Measurements: publication PMC2650736 (Drug metabolism and disposition: the biological fate of …, 2008)
Where two headings read alike, the source gives them in different places.

Key:
[1] = Midazolam absorptive permeability in Caco-2 cell monolayers; type: in vitro ADME, human; details: human, apical to basolateral, midazolam 3 μM
Caco-2 cell monolayers = experiment: as above; type: in vitro ADME, human
[2] = type: in vivo, human; details: for Cmax: read-out: Cmax, Geometric Mean (CV %)
[3] = CBJ, single oral 5 mg midazolam
[4] = water, single oral 5 mg midazolam

Cc1ncc2n1-c1ccc(Cl)cc1C(c1ccccc1F)=NC2 [midazolam]
Papp A→B at 3 μM ([1]; Caco-2, Papp, acidic pH (5.5)): 21.9 ± 3.3 ×10⁻⁶ cm/s | Papp A→B at 3 μM ([1]; Caco-2, pH 7.4, Papp, control (plain incubation medium, pH 7.4)): 19.4 ± 1.8 ×10⁻⁶ cm/s | Papp A→B at 3 μM ([1]; Caco-2, pH 7.4, Papp, high glucose (50 g/L, pH 7.4)): 18.9 ± 2.8 ×10⁻⁶ cm/s | total amount of midazolam recovered from apical and basolateral chambers (Caco-2 cell monolayers; all time points, all conditions): ≥ 80 % of the initial amount added to the apical chamber | amount of midazolam recovered from cell scrapings (Caco-2 cell monolayers; end of 4-hour experiment, all four conditions): 7−9 % of the initial amount added to the apical chamber | CI/F, Geometric Mean (CV %) [2, 3]: 54 (30) L/h | t1/2 (terminal half-life), Geometric Mean (CV %) [2, 3]: 2.9 (25) h | half-life ([2]; human, plasma, po, 5 mg): 2.9 h | AUC0-∞, CBJ / Water Ratio [90% CI] ([2]; single oral 5 mg midazolam): 1.33 [1.17−1.50] | AUClast, CBJ / Water Ratio [90% CI] ([2]; single oral 5 mg midazolam): 1.31 [1.18−1.46] | CI/F, CBJ / Water Ratio [90% CI] ([2]; single oral 5 mg midazolam): 0.75 [0.67−0.85] | Cmax, CBJ / Water Ratio [90% CI] ([2]; single oral 5 mg midazolam): 0.56 [0.49−0.64] | t1/2, CBJ / Water Ratio [90% CI] ([2]; single oral 5 mg midazolam): 1.01 [0.86−1.19] | CI/F, Geometric Mean (CV %) [2, 4]: 71 (33) L/h

OCc1ncc2n1-c1ccc(Cl)cc1C(c1ccccc1F)=NC2 [1'-Hydroxymidazolam, 1'-hydroxymidazolam]
tmax [median (range)] ([2]; CBJ (3 × 240 ml sweetened double-strength juice E), single oral 5 mg midazolam): 2.0 (1.0−6.0) h | AUC0-∞, Geometric Mean (CV %) [2, 3]: 62 (25) nM●h | AUClast, Geometric Mean (CV %) [2, 3]: 55 (23) nM●h | t1/2 (terminal half-life), Geometric Mean (CV %) [2, 3]: 3.3 (19) h | Cmax [2, 3]: 10 nM | Cmax [2, 4]: 33 nM | AUC0-∞, CBJ / Water Ratio [90% CI] ([2]; single oral 5 mg midazolam): 0.84 [0.77−0.92] | AUClast, CBJ / Water Ratio [90% CI] ([2]; single oral 5 mg midazolam): 0.80 [0.73−0.88] | Cmax, CBJ / Water Ratio [90% CI] ([2]; single oral 5 mg midazolam): 0.32 [0.27−0.38] | t1/2, CBJ / Water Ratio [90% CI] ([2]; single oral 5 mg midazolam): 1.04 [0.89−1.20] | AUC0-∞, Geometric Mean (CV %) [2, 4]: 74 (37) nM●h | AUClast, Geometric Mean (CV %) [2, 4]: 69 (35) nM●h | t1/2 (terminal half-life), Geometric Mean (CV %) [2, 4]: 3.2 (35) h | tmax [median (range)] ([2]; water, single oral 5 mg midazolam, 16 healthy volunteers): 0.5 (0.25−1.5) h
